Where “and” joins values, the source holds several entries; their conditions need not be identical. Equal values may be shown once.
How the values were obtained:
[1] = tested on: Varroa mites; assay: Varroa trapping device in a Varroa-infested 9-frame colony; assay type: in vivo, Varroa jacobsoni; conditions: trap coated with 20% 2-heptanone gel, between brood frames, after 48 hrs
Source text: In a second test to determine if 2-heptanone is an attractant, a Varroa trapping device was placed in a Varroa-infested 9-frame colony for 48 hrs. The device was constructed by placing a 2.54 cm^2 piece of Dewill® Varroa Mite Detector Insert coated with a 20% concentration of 2-heptanone in a gel formulation and covered with a 0.63 cm (0.25 inch) wire mesh. A wire was placed through the top of the trap so that the trap dangled between the frames in the colony. The device was placed between frames containing brood.

[2] = tested on: Varroa mites; assay: Attractant petri dish bioassay with 20% 2-heptanone gel formulation; assay type: in vivo, Varroa jacobsoni; conditions: 40 μL of 20% 2-heptanone gel
Procedure: We conducted bioassays to deternine if 2-heptanone attracts Varroa mites. In the first bioassay, we exposed free-running adult mites to volatiles from a 20% 2-heptanone in a gel formulation. […] 40 μL of 20% 2-heptanone in a gel formulation was added to a weighing boat located in the center of the petri dish. Control dishes were set up as described above with empty weighing boats in the center. Within 24 hours 27.3% of the mites were found in the gel formulation of 2-heptanone located in the weighing boat in the center of the petri dish. No mites were found in the weighing boat in the Control dish. The bioassay was repeated using the same procedure as described above. In the second replicate, 16.7% of the mites were found in the gel formulation of 2-heptanone located in the weighing boat in the center of the petri dish and again 0% were found in the weighing boats of the Control dishes.

[3] = tested on: free-running adult mites
Procedure: 2-Heptanone was tested for miticidal activity in two separate sets of bioassays. In the petri dish bioassays we exposed free-running adult mites to volatiles from 2-heptanone either in pure form or in an acrylic block dispenser (as described in a further experiment, below) and measured mortality over time. Mites were placed in petri dishes (5-10 mites/dish, 4 dishes per treatment and 4 dishes for controls) that were lined on the bottom with damp tissue paper covered with Parafilm®. Holes were punched in the Parafilm® using an insect pin to create a humid environment in the petri dish. A piece of filter paper the same size as the petri dish was placed on top of the Parafilm® sheet. In the first petri dish bioassay, 40 μl of pure 2-heptanone was placed on a piece of filter paper on the lid of the petri dish (treatment dishes). The Control dishes were set up as described above but nothing was added to the piece of filter paper fastened to the lid of the petri dish. The petri dishes were placed in separate incubators for treatments and Controls. Incubator temperatures were maintained at 33-34.4° C. […] In the second bioassay 0.1 g of a 30% concentration of 2-heptanone in acrylic block made as in Example 6 was placed in a plastic weighing boat in the center of petri dishes prepared as described above. Control petri dishes were prepared identically to those containing the acrylic block, but the weighing boat in the center of the dish was empty.
In another series of tests, 2-heptanone, 98+% (Sigrma-Aldrich); 3-heptanone (Fluka Chemika); 4-heptanone (Fluka Chemika); 2-hexanone; 2-octanone, 98% (Aldrich Chemical Co.); 1-heptanol (Fluka Chemika, 99.5% GC), and heptaldehyde, 95% (Aldrich Chemical Co.) were tested in petri dish bioassays wherein free-running adult mites were exposed to 40 μl of pure compound placed on filter paper as described above. The test conditions and Controls were as described above.
The test conditions and Controls were as described above.

[4] = tested on: mites; assay: Minimum Level Treatment Effectiveness petri dish bioassay; assay type: in vivo; conditions: for # of Dead Mites/Total Mites: 17.5 hours exposure
Procedure: Determination of the minimum amount of 2-heptanone effective in mite mortality in our bioassay was performed according to the following procedure: 3 Kimwipes® were placed on the bottom of petri dishes and slightly moistened with water using a disposable 1 ml pipette. A cut section of Parafilm® M was placed over the moistened Kimwipes® and stretched up and over the outer edge of the petri dish bottom. […] A single Whatman® Filter paper (9.0 cm) was placed on top of the pierced Parafilm® area and pushed down to create space between the filter paper and the petri dish lid. Six to eight mites and two bee larvae were placed on top of the filter paper in each petri dish. A small strip of filter paper was taped to the inside top of each petri dish. Four groups of two petri dishes were labeled according to the type of treatment. The treatments were: 1 μL 2-heptanone; 5 μL 2-heptanone; 10 μL 2-heptanone; and Control (no treatment). All eight dishes were then placed in incubators set to maintain a temperature of 33-34.4° C. Our results were as follows:
In our second bioassay, the same protocol was applied; however we sought to investigate if lower amounts of 2-heptanone could be as effective. In this trial, amounts of 0.5 and 1 μL of 2-heptanone were used. After 17.5 hours exposure to 2-heptanone, our results were as follows: […]

[5] = in words; cited from earlier work
[6] = tested on: wax moth (Galleria mellonella); assay: Control of wax moth in stored frames with drawn comb; assay type: in vivo; conditions: 1, 2 or 3 slow release strips with 60 grams 2-heptanone, after 5 weeks; equipment without 2-heptanone totally infested
Source text: We conducted an experiment where we stored five frames with drawn comb in a nucleus colony box without bees present. In three nucleus colony boxes we placed 1, 2 or 3 strips containing 60 grams of 2-heptanone in a slow release formulation. In a fourth nucleus colony box we placed no 2-heptanone. Within 2 weeks after the start of the experiment, the equipment without 2-heptanone had wax moth adults present between the frames. The adults probably were laying eggs. After 5 weeks, the equipment without 2-heptanone was totally infested with wax moth. There still was no wax moth in any equipment containing 2-heptanone.

CCCCCC(C)=O [2-Heptanone]
Varroa mites found stuck in the gel on the trap [1]: several hundred | % of the mites found in the gel formulation in the weighing boat ([2]; second replicate, Control 0%): 16.7% | % of the mites found in the gel formulation in the weighing boat ([2]; within 24 hours, first bioassay, Control none): 27.3% | % of the mites dead ([3]; 0.1 g of 30% 2-heptanone in acrylic block, 4 hrs., controls 6%): 90% | time until all the mites were dead ([3]; 40 μl pure 2-heptanone on filter paper, 33-34.4° C., controls 0% mortality): less than 2 hrs. | # of Dead Mites/Total Mites ([4]; 0.5 μL 2-heptanone, per dish): 1/6 and 1/5 and 2/6 and 0/5 | # of Dead Mites/Total Mites ([4]; 1 μL 2-heptanone, per dish): 3/6 and 0/5 and 1/4 and 1/5 | % Mortality 25.5 hours ([4]; 1 μL 2-heptanone, per dish): 50% and 66% | % Mortality 40.5 hours ([4]; 1 μL 2-heptanone, per dish): 50% and 66% | % Mortality 40.5 hours ([4]; 5 μL 2-heptanone, per dish): 100% and 68% | % Mortality 17.5 hours ([4]; 10 μL 2-heptanone, per dish): 66% and 40% | % Mortality 25.5 hours ([4]; 10 μL 2-heptanone, per dish): 66% and 50% | % Mortality 40.5 hours ([4]; 10 μL 2-heptanone, per dish): 66% and 60% | action on the mites at higher concentrations ([4]; mites inanimate at 1 hour, active again as 2-heptanone evaporated): knockdown action | minimum amount of 2-heptanone that will cause mite mortality ([4]; petri dish): 1 µL | solubility in water [5]: very slightly soluble in water | wax moth infestation of stored equipment [6]: no wax moth

— patent US7423068B2, “Control of parasitic mites of honey bees” (The United States of America as represented by the …, priority 2001, dated 2008)
